Publication PMC9024338, “Bruceine H Mediates EGFR-TKI Drug Persistence in NSCLC by Notch3-Dependent β-Catenin Activating FOXO3a Signaling” (Frontiers in Oncology, 2022)
Where “and” joins values, the source holds several entries; their conditions need not be identical. Identical values can stand only once. Like-named read-outs stand apart in the source and are kept apart here.

Assay: Preliminary pharmacokinetics in SD rats
Format: in vivo
Details: for AUC(0-inf) / AUC(0-t) / clearance / half-life / Cmax / Vd / concentration at 5 min / concentration at 10 min / concentration at 0.25 h / concentration at 0.5 h / concentration at 0.75 h / concentration at 1 h / concentration at 2 h / concentration at 4 h / concentration at 6 h / concentration at 8 h / concentration at 12 h / concentration at 24 h / MRT inf / k el: male, SD, rat, plasma; for Cmax: read-out: Maximum concentration (C max)
Experimental: We administered BH by gavage and intravenous administration to SD rats (male, 200–220 g, n = 6) after they had fasted for 12 h. For oral gavage, the BH was dissolved in DMSO/0.5% CMC-Na (5/95, v/v/), and for intravenous administration, it was dissolved in DMSO/0.9% NaCl (5/95, v/v/), and then the blood samples were collected at intervals to determine the pharmacokinetic (PK) profiles of SD rats.

CC1=CC(=O)[C@@H](O)[C@]2(C)[C@H]3[C@@H](O)[C@H](O)[C@@]4(CO)OC[C@@]35[C@@H](C[C@@H]12)OC(=O)[C@H](O)[C@]54O [BH, Bruceine H]
Concentration of BH in rat plasma, individual rats No1-No3 (i.v. 2 mg/kg, 5 min, 2 mg/kg): 484.6 ng/mL and 469.6 ng/mL | Concentration of BH in rat plasma, individual rats No1-No3 (i.v. 2 mg/kg, 10 min, 2 mg/kg): 455.4 ng/mL and 450.6 ng/mL | Concentration of BH in rat plasma, individual rats No1-No3 (i.v. 2 mg/kg, 0.25 h, 2 mg/kg): 398.5 ng/mL and 384.2 ng/mL | Concentration of BH in rat plasma, individual rats No1-No3 (i.v. 2 mg/kg, 0.5 h, 2 mg/kg): 245.3 ng/mL and 234.1 ng/mL | Concentration of BH in rat plasma, individual rats No1-No3 (i.v. 2 mg/kg, 0.75 h, 2 mg/kg): 177.7 ng/mL and 180.4 ng/mL | Concentration of BH in rat plasma, individual rats No1-No3 (i.v. 2 mg/kg, 1 h, 2 mg/kg): 135.4 ng/mL and 119.6 ng/mL | Concentration of BH in rat plasma, individual rats No1-No3 (i.v. 2 mg/kg, 2 h, 2 mg/kg): 95.3 ng/mL and 98.5 ng/mL | Concentration of BH in rat plasma, individual rats No1-No3 (i.v. 2 mg/kg, 4 h, 2 mg/kg): 55.4 ng/mL and 51.2 ng/mL | Concentration of BH in rat plasma, individual rats No1-No3 (i.v. 2 mg/kg, 6 h, 2 mg/kg): 40.4 ng/mL and 42.1 ng/mL | Concentration of BH in rat plasma, individual rats No1-No3 (i.v. 2 mg/kg, 8 h, 2 mg/kg): 18.8 ng/mL and 25.4 ng/mL | Concentration of BH in rat plasma, individual rats No1-No3 (i.v. 2 mg/kg, 12 h, 2 mg/kg): 12.3 ng/mL and 21.3 ng/mL | Concentration of BH in rat plasma, individual rats No1-No3 (i.v. 2 mg/kg, 24 h, 2 mg/kg): 6.3 ng/mL and 10.2 ng/mL | AUC(0-inf) (iv, 2 mg/kg, SD rats, 2 mg/kg iv, read-out: AUC0–inf): 1050 ng·h/mL | AUC(0-t) (iv, 2 mg/kg, SD rats, 2 mg/kg iv, read-out: AUC0–last): 944 ng·h/mL | clearance (iv, 2 mg/kg, SD rats, 2 mg/kg iv, read-out: Clearance (CL) (converted)): 31.9 mL/min/kg | half-life (iv, 2 mg/kg, SD rats, 2 mg/kg iv, read-out: Half-life (T 1/2) (converted)): 9.69 h | Cmax (iv, 2 mg/kg, SD rats, 2 mg/kg iv): 477 ng/mL | Vd (iv, 2 mg/kg, SD rats, 2 mg/kg iv, read-out: Volume of distribution (V ss)): 26.5 L/kg | concentration at 5 min (iv, 2 mg/kg, i.v. 2 mg/kg, 5 min, read-out: Concentration of BH in rat plasma, Mean): 477 ng/mL | concentration at 5 min (iv, 2 mg/kg, i.v. 2 mg/kg, 5 min, read-out: Concentration of BH in rat plasma, individual rats No1-No3): 478 ng/mL | concentration at 10 min (iv, 2 mg/kg, i.v. 2 mg/kg, 10 min, read-out: Concentration of BH in rat plasma, Mean): 442 ng/mL | concentration at 10 min (iv, 2 mg/kg, i.v. 2 mg/kg, 10 min, read-out: Concentration of BH in rat plasma, individual rats No1-No3): 420 ng/mL | concentration at 0.25 h (iv, 2 mg/kg, i.v. 2 mg/kg, 0.25 h, read-out: Concentration of BH in rat plasma, Mean): 384 ng/mL | concentration at 0.25 h (iv, 2 mg/kg, i.v. 2 mg/kg, 0.25 h, read-out: Concentration of BH in rat plasma, individual rats No1-No3): 371 ng/mL | concentration at 0.5 h (iv, 2 mg/kg, i.v. 2 mg/kg, 0.5 h, read-out: Concentration of BH in rat plasma, Mean): 236 ng/mL | concentration at 0.5 h (iv, 2 mg/kg, i.v. 2 mg/kg, 0.5 h, read-out: Concentration of BH in rat plasma, individual rats No1-No3): 228 ng/mL | concentration at 0.75 h (iv, 2 mg/kg, i.v. 2 mg/kg, 0.75 h, read-out: Concentration of BH in rat plasma, Mean): 177 ng/mL | concentration at 0.75 h (iv, 2 mg/kg, i.v. 2 mg/kg, 0.75 h, read-out: Concentration of BH in rat plasma, individual rats No1-No3): 172 ng/mL | concentration at 1 h (iv, 2 mg/kg, i.v. 2 mg/kg, 1 h, read-out: Concentration of BH in rat plasma, Mean): 127 ng/mL | concentration at 1 h (iv, 2 mg/kg, i.v. 2 mg/kg, 1 h, read-out: Concentration of BH in rat plasma, individual rats No1-No3): 125 ng/mL | concentration at 2 h (iv, 2 mg/kg, i.v. 2 mg/kg, 2 h, read-out: Concentration of BH in rat plasma, Mean): 99.1 ng/mL | concentration at 2 h (iv, 2 mg/kg, i.v. 2 mg/kg, 2 h, read-out: Concentration of BH in rat plasma, individual rats No1-No3): 104 ng/mL | concentration at 4 h (iv, 2 mg/kg, i.v. 2 mg/kg, 4 h, read-out: Concentration of BH in rat plasma, Mean): 54.9 ng/mL | concentration at 4 h (iv, 2 mg/kg, i.v. 2 mg/kg, 4 h, read-out: Concentration of BH in rat plasma, individual rats No1-No3): 58 ng/mL | concentration at 6 h (iv, 2 mg/kg, i.v. 2 mg/kg, 6 h, read-out: Concentration of BH in rat plasma, Mean): 40 ng/mL | concentration at 6 h (iv, 2 mg/kg, i.v. 2 mg/kg, 6 h, read-out: Concentration of BH in rat plasma, individual rats No1-No3): 37.6 ng/mL | concentration at 8 h (iv, 2 mg/kg, i.v. 2 mg/kg, 8 h, read-out: Concentration of BH in rat plasma, Mean): 24.5 ng/mL | concentration at 8 h (iv, 2 mg/kg, i.v. 2 mg/kg, 8 h, read-out: Concentration of BH in rat plasma, individual rats No1-No3): 29.2 ng/mL | concentration at 12 h (iv, 2 mg/kg, i.v. 2 mg/kg, 12 h, read-out: Concentration of BH in rat plasma, Mean): 17.9 ng/mL | concentration at 12 h (iv, 2 mg/kg, i.v. 2 mg/kg, 12 h, read-out: Concentration of BH in rat plasma, individual rats No1-No3): 20 ng/mL | concentration at 24 h (iv, 2 mg/kg, i.v. 2 mg/kg, 24 h, read-out: Concentration of BH in rat plasma, Mean): 7.37 ng/mL | concentration at 24 h (iv, 2 mg/kg, i.v. 2 mg/kg, 24 h, read-out: Concentration of BH in rat plasma, individual rats No1-No3): 5.6 ng/mL | AUC(0-t) (iv, 2 mg/kg, i.v., read-out: AUC (0-t), Mean): 944 ng·h/mL | AUC(0-t) (iv, 2 mg/kg, i.v., read-out: AUC (0-t), individual rats No1-No3): 965 ng·h/mL | AUC(0-inf) (iv, 2 mg/kg, i.v., read-out: AUC (0-∞), individual rats No1-No3): 1020 ng·h/mL | clearance (iv, 2 mg/kg, i.v., read-out: CLz, Mean (converted)): 31.9 mL/min/kg | clearance (iv, 2 mg/kg, i.v., read-out: CLz, individual rats No1-No3 (converted)): 32.7 mL/min/kg | concentration at 24 h (iv, 2 mg/kg, i.v., read-out: C_last, Mean): 7.35 ng/mL | concentration at 24 h (iv, 2 mg/kg, i.v., read-out: C_last, individual rats No1-No3): 5.6 ng/mL | MRT inf (iv, 2 mg/kg, i.v., read-out: MRT (0-∞), Mean): 8.44 h | MRT inf (iv, 2 mg/kg, i.v., read-out: MRT (0-∞), individual rats No1-No3): 6.47 h | Vd (iv, 2 mg/kg, i.v., read-out: Vz, Mean): 26.5 L/kg | Vd (iv, 2 mg/kg, i.v., read-out: Vz, individual rats No1-No3): 18.6 L/kg | half-life (iv, 2 mg/kg, i.v., read-out: t1/2z, Mean (converted)): 9.69 h | half-life (iv, 2 mg/kg, i.v., read-out: t1/2z, individual rats No1-No3 (converted)): 6.55 h | k el (iv, 2 mg/kg, i.v., read-out: λz, Mean (converted)): 2.11e-05 s⁻¹ | k el (iv, 2 mg/kg, i.v., read-out: λz, individual rats No1-No3 (converted)): 2.94e-05 s⁻¹ | AUC(0-inf) (po, 10 mg/kg, SD rats, 10 mg/kg po, read-out: AUC0–inf): 976 ng·h/mL | AUC(0-t) (po, 10 mg/kg, SD rats, 10 mg/kg po, read-out: AUC0–last): 961 ng·h/mL | half-life (po, 10 mg/kg, SD rats, 10 mg/kg po, read-out: Half-life (T 1/2) (converted)): 3.35 h | Cmax (po, 10 mg/kg, SD rats, 10 mg/kg po): 147 ng/mL | concentration at 0.25 h (po, 10 mg/kg, p.o. 10 mg/kg, 0.25 h, read-out: Concentration of BH in rat plasma, Mean): 11.8 ng/mL | concentration at 0.25 h (po, 10 mg/kg, p.o. 10 mg/kg, 0.25 h, read-out: Concentration of BH in rat plasma, individual rats No1-No3): 13.6 ng/mL | concentration at 0.5 h (po, 10 mg/kg, p.o. 10 mg/kg, 0.5 h, read-out: Concentration of BH in rat plasma, Mean): 58.1 ng/mL | concentration at 0.5 h (po, 10 mg/kg, p.o. 10 mg/kg, 0.5 h, read-out: Concentration of BH in rat plasma, individual rats No1-No3): 68.4 ng/mL | concentration at 0.75 h (po, 10 mg/kg, p.o. 10 mg/kg, 0.75 h, read-out: Concentration of BH in rat plasma, Mean): 104 ng/mL | concentration at 0.75 h (po, 10 mg/kg, p.o. 10 mg/kg, 0.75 h, read-out: Concentration of BH in rat plasma, individual rats No1-No3): 111 ng/mL | concentration at 1 h (po, 10 mg/kg, p.o. 10 mg/kg, 1 h, read-out: Concentration of BH in rat plasma, Mean): 147 ng/mL | concentration at 1 h (po, 10 mg/kg, p.o. 10 mg/kg, 1 h, read-out: Concentration of BH in rat plasma, individual rats No1-No3): 154 ng/mL | concentration at 2 h (po, 10 mg/kg, p.o. 10 mg/kg, 2 h, read-out: Concentration of BH in rat plasma, Mean): 123 ng/mL | concentration at 2 h (po, 10 mg/kg, p.o. 10 mg/kg, 2 h, read-out: Concentration of BH in rat plasma, individual rats No1-No3): 130 ng/mL | concentration at 4 h (po, 10 mg/kg, p.o. 10 mg/kg, 4 h, read-out: Concentration of BH in rat plasma, Mean): 101 ng/mL | concentration at 4 h (po, 10 mg/kg, p.o. 10 mg/kg, 4 h, read-out: Concentration of BH in rat plasma, individual rats No1-No3): 115 ng/mL | concentration at 6 h (po, 10 mg/kg, p.o. 10 mg/kg, 6 h, read-out: Concentration of BH in rat plasma, Mean): 80.5 ng/mL
